Results reported in PMC4072668, “Mass Spectrometric Detection and Characterization of Atypical Membrane-Bound Zinc-Sensitive Phosphatases Modulating GABAA Receptors” (PLoS ONE, 2014).
Like-named read-outs stand apart in the source and are kept apart here. Non-standard residues stand in square brackets, D forms with d. No end group written: not given here. pT = C[C@@H](OP(=O)(O)O)[C@H](N)C(=O)O; pS = N[C@@H](COP(=O)(O)O)C(=O)O

Key:
[1] = system: membrane-bound phosphatase activities of washed cortical membrane; assay: LC-MS/MS phosphatase assay with effectors, N-terminal phosphopeptide pI2α1N-P as substrate; type: biochemical; conditions: substrate pI2α1N-P; for IC50: 1 mM Mg2+, 30°C, 10 min, read-out: IC50
Method: (§1) Phosphatasic activity of bovine, rat and human washed cortical membranes was measured by using synthetic phosphopeptides as substrates. Reactions were performed in presence of 50 µg/ml (total proteins) of washed cortical membrane, 10 mM Hepes-Tris pH 7.4 and 1 mM MgCl2. Enzymatic reactions were initiated by adding 10 µM of phosphopeptide incubated for 10 min at 30°C and stopped by adding ice-cold acetic acid at a final concentration of 10% (w/v). Following a 800 g centrifugation during 10 min at 4°C, the supernatants were analyzed by LC-MS/MS. […] For these reasons, and to avoid micro-capillary column obstruction we have preferentially used the micro-LC column to characterize the pharmacological profile of phosphatasic activities.
(§2) Quantification of appearance of the native peptide and disappearance of the phosphopeptide in different conditions was performed using the calibration curve plotted using the Xcalibur software (P/N 64018-XCALI version 1.3). The calibration curve and linear regression were constructed using a series of standards, native and phosphorylated equimolar mixture, N- or C-terminal peptides at different concentrations 0.5, 1, 2, 5 and 10 µM (n = 2) in 10 mM Hepes pH 7.4, 1 mM Mg^2+ and 10% acetic acid, which was the same milieu condition as in the phosphatase assay after stopping reactions. The linear regression represents peak area of MS/MS chromatogram spectra depending on the peptide concentration (Figure S1).
(§3) Different effectors were tested by addition to the incubation medium at variable concentration: the dicationic ions Mg^2+, Ca^2+, Zn^2+ were used as chloride, the polycation spermine as hydrochloride, the anion F^− as sodium fluoride (NaF), and the inhibitors of some known phosphatases okadaic acid and the two (+/−) enantiomers of p–bromotetramisole oxalate (p-Br-t). For the inhibitory effects, relative 50% inhibition concentration (IC50) values were either determined graphically with a log-scale for the concentration axis or by the ‘log (inhibitor) vs. response’ nonlinear fit of Prism 5 software (GraphPad), considering activity in the absence of inhibitor as 100%.
Figure 4 Effects of various inhibitors on the membrane-bound phosphatase activities. […] Incubations were performed at 30°C during 10 min. The activities are expressed as a percentage of that of control samples without inhibitors. Inhibition profiles of PPase activities by okadaic acid were performed using N-terminal phosphopeptide (A) or C-terminal phosphopeptide (B) as substrate. The data points are means ± SEM of 3 experiments. The red arrows indicate the different IC50. […] Data points are the average ± SEM of duplicate assays. (D) Effect of Ca^2+ ions, fluoride (F^−) and spermine (SPM^4+) on PPase activity using N-terminal phosphopeptide as substrate.

alkaline phosphatase = system: alkaline phosphatase; set-up: method as in PMID 10898722; conditions: cited from earlier work
[2] = system: membrane-bound phosphatase activities of washed cortical membranes; assay: Enzyme kinetics of membrane-bound phosphatase activities with phosphopeptide substrates; type: biochemical; conditions: for Km / Vmax: phosphopeptide as substrate, 50 µg/ml membrane proteins, 30°C, 10 min, Michaelis-Menten fit
Method: Phosphatasic activity of bovine, rat and human washed cortical membranes was measured by using synthetic phosphopeptides as substrates. Reactions were performed in presence of 50 µg/ml (total proteins) of washed cortical membrane, 10 mM Hepes-Tris pH 7.4 and 1 mM MgCl2. Enzymatic reactions were initiated by adding 10 µM of phosphopeptide incubated for 10 min at 30°C and stopped by adding ice-cold acetic acid at a final concentration of 10% (w/v). Following a 800 g centrifugation during 10 min at 4°C, the supernatants were analyzed by LC-MS/MS. This centrifugation step was critical to remove membrane suspension that interferes with nano-LC and MS analysis. For these reasons, and to avoid micro-capillary column obstruction we have preferentially used the micro-LC column to characterize the pharmacological profile of phosphatasic activities.
The best conditions of incubation time and total protein concentration of washed cortical membranes were determined for assaying phosphatase activity with 10 µM of pI2α1 phosphopeptide. Protein concentration varied from 1 to 300 µg/ml and incubation time from 0.25 to 30 min, at fixed temperature of 30°C as in previous studies. Initial velocity of the enzymatic reaction was determined by linear regression (slope value). The optimal conditions were obtained with 50 µg/ml total membrane protein concentration and 10 min incubation time. The effects of the substrate effects were measured by varying the pI2α1N-P and pI2α1C-P concentrations between 3 and 75 µM. Saturation plots were generated via non-linear fit to the Michaelis-Menten equation. The affinity constant (Km) and maximum velocity (Vmax) were evaluated from this curve fitting using the Prism 5 computer program (GraphPad). Double-reciprocal plots with the Lineweaver-Burk equation were also drawn by linear fits using the same software.
Figure 2 LC-MS/MS detection and kinetics analysis of GABAAR α1-subunit phosphatase activities. (A) Dose-dependency at various protein concentrations; (B) time course of phosphatase activities using 50 µg/ml of total proteins of washed cortical membranes from bovine brain and (C) from human epileptic tissue. The N-terminal phosphopeptide (pI2α1N-P) used as substrate at 10 µM was incubated during 10 min at 30°C in 10 mM Hepes (pH 7.4) in the presence of 1 mM Mg^2+. The enzymatic reactions were stopped with 10% acetic acid and the samples were analyzed by LC-MS/MS as in figure 1E, F. The dephosphorylation rate was quantified by measuring simultaneously the quantity of the produced native peptide (pI2α1N) and of the remaining phosphorylated substrate (pI2α1N-P). Error bars represent SEM of two experiments. Kinetic analysis of GABAAR α1-subunit phosphatase activities was investigated using N-terminal (pI2α1N-P) and C-terminal (pI2α1C-P) phosphopeptides. All experiments were carried out with 50 µg/ml membrane proteins concentration, incubated at 30°C during 10 min, in presence of different concentrations of substrates. (D) Saturation plot of the initial velocity Vi versus [pI2α1N-P] and Lineweaver-Burk plots of 1/V versus 1/[pI2α1N-P] […] (E) Saturation plot of Vi versus [pI2α1C-P] and Lineweaver-Burk plot of 1/V versus 1/[pI2α1C-P] (inset). The data points are means ± SEM of 3 experiments.

[3] = system: GABAA receptor currents in pyramidal neurons; set-up: method as in PMID 15342727; conditions: cited from earlier work
[4] = system: membrane-bound phosphatase dephosphorylating GABAAR; set-up: method as in PMID 10762086; conditions: cited from earlier work
[5] = system: membrane-bound phosphatase activities of rat washed cortical membrane; assay: LC-MS/MS phosphatase assay, Zn2+ profile, C-terminal phosphopeptide pI2α1C-P as substrate; type: biochemical; conditions: for IC50: substrate pI2α1C-P 10 µM, 1 mM Mg2+, 30°C, 10 min, two-step fit
Method: as §1, §2
Different effectors were tested by addition to the incubation medium at variable concentration: the dicationic ions Mg^2+, Ca^2+, Zn^2+ were used as chloride, the polycation spermine as hydrochloride, the anion F^− as sodium fluoride (NaF), and the inhibitors of some known phosphatases okadaic acid and the two (+/−) enantiomers of p–bromotetramisole oxalate (p-Br-t). […]
Assays were performed in presence of rat washed cortical membrane at 50 µg/ml of total protein concentration, with increasing amounts of Zn^2+ ions in 10 mM Hepes buffer pH 7.4 with 1 mM Mg^2+ in presence of. […] The activities are expressed as a percentage of that of control samples. […]

[6] = system: membrane-bound phosphatase activities of rat washed cortical membrane; assay: LC-MS/MS phosphatase assay, Zn2+ profile, N-terminal phosphopeptide pI2α1N-P as substrate; type: biochemical; conditions: for IC50: substrate pI2α1N-P 10 µM, 1 mM Mg2+, 30°C, 10 min, two-step fit
Method: as §1, §2, §3
Assays were performed in presence of rat washed cortical membrane at 50 µg/ml of total protein concentration, with increasing amounts of Zn^2+ ions in 10 mM Hepes buffer pH 7.4 with 1 mM Mg^2+ in presence of. Incubations were performed at 30°C during 10 min. The activities are expressed as a percentage of that of control samples. […] (H) PPase activity at very low Zn^2+ concentrations (1 pM–200 nM). The IC50 values are mentioned with their 95% confidence intervals and calculated from nonlinear regression curve fits using GraphPad Prism 5.

[7] = read-out: IC50 (H), high affinity
[8] = read-out: IC50 (L), low affinity

Brc1ccc(C2CN3CCSC3=N2)cc1.O=C(O)C(=O)O (single isomer, unassigned; (-)) [(−)-p--Br--t, (−)-p-bromotetramisole oxalate]
inhibition of membrane phosphatase activities ([1]; 1 mM): completely inhibited
IC50 [1]: 300 µM
inhibition of alkaline phosphatase (alkaline phosphatase): potent alkaline phosphatase inhibitor

NCCCNCCCCNCCCN [Spermine, spermine]
inhibition of phosphatase activities ([1]; 1 mM): 10%
inhibition of phosphatase activities ([1]; 10 mM): 20%
IC50 [1]: > 10000 µM

NYF[pT]KRGYAWDGK [pI2α1N-P]
Km [2]: 25.4 ± 3.3 µM
Vmax [2]: 2320±130 pM.min^−1.ml^−1

[Ca+2].[Cl-].[Cl-] [Ca^2+, CaCl2]
inhibition of phosphatase activities ([1]; 1 mM): 30%
inhibition of phosphatase activities ([1]; 10 mM): less than 60%
IC50 [1]: ~5000 µM

[Na+].[Na+].[Na+].[O]=[V]([O-])([O-])[O-] [sodium orthovanadate]
effect on rundown of GABAA currents [3]: reduced rundown
inhibition of membrane phosphatases [4]: inhibits

EPKKTFNSV[pS]KIDR [pI2α1C-P]
reduction in catalytic efficiency (Vmax/Km) compared to the phosphothreonine peptide PI2α1N-P [2]: eightfold reduction
Km [2]: 116 ± 20 µM
Vmax [2]: 1290±150 pM.min^−1.ml^−1

[Cl-].[Cl-].[Mg+2] [Mg^2+, MgCl2]
effect of increasing concentration on phosphatase activities ([1]; 1 µM to 1 mM, data not shown): moderate but not linear increase

[Cl-].[Cl-].[Zn+2] [Zn^2+, Zinc chloride]
inhibition of phosphatase activities ([5]; 1 mM Zn2+, substrate pI2α1C-P): completely inhibited
IC50 [5, 7]: 0.6 µM
IC50 [5, 8]: 15 µM
effect on phosphatasic activities at low concentrations ([6]; 1 pM–200 nM Zn2+, substrate pI2α1N-P): several activations
inhibition of phosphatase activities ([6]; 1 mM Zn2+, substrate pI2α1N-P): completely inhibited
IC50 [6, 7]: 1.7 µM
IC50 [6, 8]: 48 µM
inhibition of membrane-bound phosphatase activity ([4]; concentrations between 0.1 µM-1 mM): inhibited
inhibition of GABAAR dephosphorylation ([4]; washed brain membranes, autoradiographic method): complete inhibition

Brc1ccc(C2CN3CCSC3=N2)cc1.O=C(O)C(=O)O (single isomer, unassigned; (+)) [(+)-p--Br--t, (+)-p-bromotetramisole oxalate]
inhibition of membrane phosphatase activities ([1]; 1 mM): completely inhibited
IC50 [1]: 100 µM
inhibition of alkaline phosphatase (alkaline phosphatase): completely insensitive

[F-].[Na+] [fluoride (F^−), sodium fluoride]
inhibition of phosphatase activities ([1]; 1 mM): 45%
inhibition of phosphatase activities ([1]; 10 mM): ~90%
IC50 ([1]; listed as Sodium fluoride): < 2000 µM
IC50 [1]: ~2000 µM
